Results taken from patent US20070173522A1, “4-(2-Phenylsulfanyl-phenyl)-1,2,3,6- tetrahydropyridine derivatives as serotonin reuptake inhibitors” (priority 2003, published 2007).

Assays:
[1] = biological target: T1, serotonin reuptake (5-HT uptake into rat cortical synaptosomes) (Rattus norvegicus, UniProt P31652); test: Measurements of [3H]-5-HT uptake into rat cortical synaptosomes; format: biochemical; conditions: result in words; test described in the examples section
T1 construct: Whole brains from male Wistar rats (125-225 g), excluding cerebellum, are homogenized; from tissue; host or cells: synaptosomal preparation from whole brain (excluding cerebellum) of male Wistar rats
T1 sequence (P31652 whole entry): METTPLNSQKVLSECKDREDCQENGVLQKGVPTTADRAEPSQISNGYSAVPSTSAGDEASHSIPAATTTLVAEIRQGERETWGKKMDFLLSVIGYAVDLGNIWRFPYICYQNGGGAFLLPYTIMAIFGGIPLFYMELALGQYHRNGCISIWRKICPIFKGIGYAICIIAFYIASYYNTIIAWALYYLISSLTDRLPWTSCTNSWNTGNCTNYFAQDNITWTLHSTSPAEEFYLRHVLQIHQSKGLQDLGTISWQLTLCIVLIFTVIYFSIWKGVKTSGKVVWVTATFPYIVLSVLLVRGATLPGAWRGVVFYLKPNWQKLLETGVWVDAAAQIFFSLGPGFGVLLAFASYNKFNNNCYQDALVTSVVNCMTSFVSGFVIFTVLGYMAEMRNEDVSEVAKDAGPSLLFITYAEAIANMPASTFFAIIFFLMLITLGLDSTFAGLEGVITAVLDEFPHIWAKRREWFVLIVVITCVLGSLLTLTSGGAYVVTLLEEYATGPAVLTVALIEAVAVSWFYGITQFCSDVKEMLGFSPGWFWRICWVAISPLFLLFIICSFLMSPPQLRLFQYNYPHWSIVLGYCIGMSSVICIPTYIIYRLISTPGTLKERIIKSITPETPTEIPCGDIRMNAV
Experimental: Measurements of [^3]-5-HT Uptake into Rat Cortical Synaptosomes.
Whole brains from male Wistar rats (125-225 g), excluding cerebellum, are homogenized in 0.32 M sucrose supplemented with 1 mM nialamid with a glass/teflon homogenizer. The homogenate is centrifuged at 600×g for 10 mil at 4° C. The pellet is discarded and the supernatant is centrifuged at 20.000×g for 55 min. The final pellet is homogenized (20 sec) in this assay buffer (0.5 mg original tissue/well). Test compounds (or buffer) and 10 nM [^3H]-5-HT are added to 96 well plates and shaken briefly. Composition of assay buffer: 123 mM NaCl, 4.82 mM KCl, 0.973 mM CaCl2, 1.12 mM MgSO4, 12.66 mM Na2HPO4, 2.97 mM NaH2PO4, 0.162 mM EDTA, 10 mM glucose and 1 mM ascorbic acid. Buffer is oxygenated with 95% O2/5% CO2 for 10 min at 37° C. and pH is adjusted 7.4. The incubation is started by adding tissue to a final assay volume of 0.2 mL. After 15 min incubation with radioligand at 37° C., samples are filtered directly on Unifilter GF/C glass fiber filters (soaked for 1 hour in 0.1% polyethylenimine) under vacuum and immediately washed with 3×0.2 ml assay buffer. Non-specific uptake is determined using citalopram (10 μM final concentration). Citalopram is included as reference in all experiments as dose-response curve.

[2] = biological target: T2, norepinephrine uptake (noradrenaline uptake into rat cortical synaptosomes) (Rattus norvegicus, UniProt Q63380); test: Measurements of [3H]noradrenaline uptake into rat cortical synaptosomes; format: biochemical; conditions: result in words; test described in the examples section
T2 construct: Fresh cortex from male Wistar rats (125-225 g) are homogenized in 0.4M sucrose; from tissue; host or cells: synaptosomal preparation from fresh cortex of male Wistar rats
T2 sequence (Q63380 1-617): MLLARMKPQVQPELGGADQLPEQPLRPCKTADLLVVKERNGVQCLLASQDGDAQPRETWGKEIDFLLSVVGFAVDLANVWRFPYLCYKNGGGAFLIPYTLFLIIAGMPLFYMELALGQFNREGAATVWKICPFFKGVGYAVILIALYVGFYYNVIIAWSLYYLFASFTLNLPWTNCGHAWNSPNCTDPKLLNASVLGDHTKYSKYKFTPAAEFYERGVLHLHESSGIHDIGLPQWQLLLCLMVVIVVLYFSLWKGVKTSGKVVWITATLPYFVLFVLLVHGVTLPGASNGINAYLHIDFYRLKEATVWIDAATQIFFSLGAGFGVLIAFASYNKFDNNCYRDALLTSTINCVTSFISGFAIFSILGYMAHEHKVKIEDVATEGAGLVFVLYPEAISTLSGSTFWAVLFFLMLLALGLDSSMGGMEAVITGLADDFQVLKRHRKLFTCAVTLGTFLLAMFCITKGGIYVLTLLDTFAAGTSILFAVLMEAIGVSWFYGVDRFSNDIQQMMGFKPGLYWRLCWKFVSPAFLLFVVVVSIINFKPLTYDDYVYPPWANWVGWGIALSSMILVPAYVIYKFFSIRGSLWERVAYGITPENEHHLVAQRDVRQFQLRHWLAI
Experimental: Measurements of ^3H]Noradrenaline Uptake into Rat Cortical Synaptosomes.
Fresh cortex from male Wistar rats (125-225 g) are homogenized in 0.4M sucrose with a glass/teflon homogenizer. The homogenate is centrifuged at 600×g for 10 min at 4° C. The pellet is discarded and the supernatant is centrifuged at 20.000×g for 55 min. The final pellet is homogenized (20 sec) in this assay buffer (6 mg original tissue/mL=4 mg/well). Test compounds (or buffer) and 10 nM [^3H]-noradrenaline are added to deep 96 well plates and shaken briefly. Composition of assay buffer: 123 mM NaCl, 4.82 mM KCl, 0.973 mM CaCl2, 1.12 mM MgSO4, 12.66 mM Na2HPO4, 2.97 mM NaH2PO4, 0.162 mM EDTA, 10 mM glucose and 1 mM ascorbic acid. Buffer is oxygenated with 95% O2/5% CO2 for 10 min at 37° C. and pH is adjusted 7.4. The incubation is started by adding tissue to a final assay volume of 1 ml. After 15 min incubation with radioligand at 37° C., samples are filtered directly on Unifilter GF/C glass fiber filters (soaked for 1 hour in 0.1% polyethylenimine) under vacuum and immediately washed with 3×1 mL assay buffer. Non-specific uptake is determined using talsupram (10 μM final concentration). Duloxetine is included as reference in all experiments as dose-response curve.

Row | SMILES | serotonin reuptake inhibition [1] | norepinephrine uptake inhibition [2]
1 | Cc1cccc(Sc2ccccc2C2=CCNCC2)c1C [Compound 33, 4-[2-(2,3-Dimethyl-phenylsulfanyl)-phenyl]-1,2,3,6-tetrahydro-pyridine] | did show serotonin reuptake inhibition | did not show norepinephrine uptake inhibition
2 | COc1ccc(Sc2ccccc2C2=CCNCC2)c(C)c1 [Compound 37, 4-[2-(4-Methoxy-2-methyl-phenylsulfanyl)-phenyl]-1,2,3,6-tetrahydro-pyridine] | did show serotonin reuptake inhibition | did not show norepinephrine uptake inhibition
3 | Cc1ccc(Sc2ccc(C)cc2C2=CCNCC2)c(F)c1 [Compound 52, 4-[2-(2-Fluoro-4-methyl-phenylsulfanyl)-5-methyl-phenyl]-1,2,3,6-tetrahydro-pyridine] | did show serotonin reuptake inhibition | did not show norepinephrine uptake inhibition
4 | COc1ccc(Sc2ccc(C)cc2C2=CCNCC2)c(F)c1 [Compound 61, 4-[2-(2-Fluoro-4-methoxy-phenylsulfanyl)-5-methyl-phenyl]-1,2,3,6-tetrahydro-pyridine] | did show serotonin reuptake inhibition | did not show norepinephrine uptake inhibition
5 | Fc1cccc(Sc2ccccc2C2=CCNCC2)c1F [Compound 83, 4-[2-(2,3-Difluoro-phenylsulfanyl)-phenyl]-1,2,3,6-tetrahydro-pyridine] | did show serotonin reuptake inhibition | did not show norepinephrine uptake inhibition
6 | Cc1ccc(Sc2ccccc2C2=CCNCC2)c(Cl)c1 [Compound 84, 4-[2-(2-Chloro-4-methyl-phenylsulfanyl)-phenyl]-1,2,3,6-tetrahydro-pyridine] | did show serotonin reuptake inhibition | did not show norepinephrine uptake inhibition
7 | Cc1ccc(Sc2cccc(Cl)c2F)c(C2=CCNCC2)c1 [Compound 86] | did show serotonin reuptake inhibition | did not show norepinephrine uptake inhibition
8 | Cc1c(F)cccc1Sc1ccccc1C1=CCNCC1 [Compound 87, 4-[2-(3-Fluoro-2-methyl-phenylsulfanyl)-phenyl]-1,2,3,6-tetrahydro-pyridine] | did show serotonin reuptake inhibition | did not show norepinephrine uptake inhibition
9 | Cc1ccc(Sc2cccc(F)c2C)c(C2=CCNCC2)c1 [Compound 89, 4-[2-(3-Fluoro-2-methyl-phenylsulfanyl)-5-methyl-phenyl]-1,2,3,6-tetrahydro-pyridine] | did show serotonin reuptake inhibition | did not show norepinephrine uptake inhibition
10 | Cc1ccc(Sc2ccc(C)c(F)c2)c(C2=CCNCC2)c1 [Compound 128, 4-[2-(3-Fluoro-4-methyl-phenylsulfanyl)-5-methyl-phenyl]-1,2,3,6-tetrahydro-pyridine] | did show serotonin reuptake inhibition | did not show norepinephrine uptake inhibition
